US20250195491A1 (AEVIS BIO, INC., priority 2022, published 2025)

System: iNOS and COX-2
Experiment: iNOS and COX-2 mRNA (RT-PCR) in LPS-stimulated BV-2 cells
Format: cell-based, mouse
Conditions: BV-2, 30, 10, or 3.33 μM, LPS 1 μg/mL 6 hours, FIG. 6D
Protocol: Finally, to determine the mRNA expression levels of iNOS and COX-2, BV-2 was seeded in a 6-well plate (Corning, MD, USA) at 5×10^5 cells/well, and cultured using a DMEM medium (Corning, MD, USA) containing 10% fetal bovine serum (Corning, MD, USA) and 100 U/mL of penicillin/streptomycin (Corning, MD, USA) at 37° C. in a 5% CO2 incubator for one day for stabilization. […] 1 μg/mL of LPS (Sigma, USA) was added to all experimental groups excluding the non-inflammation-induced group and allowed to react at 37° C. in a 5% CO2 incubator for 6 hours.
The drug-treated BV-2 underwent RNA prep according to the kit manual using an RNA prep kit (Monarch Total RNA Miniprep kit, NEB, UK), and the concentration was measured using a nanophotometer (NP80, Implen, Germany). […]
The expression level of each oxidative stress-associated gene in the synthesized cDNA was analyzed and compared using Real-Time PCR (StepOne™Bioscience, USA) equipment. […] The Cr value for the gene of each sample obtained through real-time PCR was normalized by the value of the internal control gene (GAPDH) of each sample, the expression level was estimated inversely by 2ΔΔCT calculation, and the resulting value of each group was quantified and expressed as a percentage relative to the LPS-only treatment group.

Compound: Nc1cccc2c1C(=S)N(C1CCC(=O)NC1=O)C2=O (stereo not shown) [3-MP, 3-thiopomalidomide]
- mRNA expression of oxidative stress-associated genes (iNOS and COX-2): can effectively inhibit the mRNA expression of an oxidative stress-associated gene
